In US20260356840A1, “[1,2,4]TRIAZOLO[1,5-A]PYRIMIDINONE WRN INHIBITORS” (Nimbus Wadjet, Inc., priority 2023, published 2026):

What follows are compounds tested against T1, human Werner helicase (Uniprot Q14191, amino acids 517-1235 with L1074F point mutation), WRN-BV08 (Homo sapiens, UniProt Q14191, L1074F) (assay: WRN (BV08) ADP-Glo Assay).
T1 construct: Uniprot Q14191, amino acids 517-1235 with L1074F point mutation; TEV cleavable 8xHis tag (C, cleaved yes); made in house; host or cells: Sf9 insect cells (baculovirus, pFastBac)
T1 sequence (Q14191 517-1235 L1074F): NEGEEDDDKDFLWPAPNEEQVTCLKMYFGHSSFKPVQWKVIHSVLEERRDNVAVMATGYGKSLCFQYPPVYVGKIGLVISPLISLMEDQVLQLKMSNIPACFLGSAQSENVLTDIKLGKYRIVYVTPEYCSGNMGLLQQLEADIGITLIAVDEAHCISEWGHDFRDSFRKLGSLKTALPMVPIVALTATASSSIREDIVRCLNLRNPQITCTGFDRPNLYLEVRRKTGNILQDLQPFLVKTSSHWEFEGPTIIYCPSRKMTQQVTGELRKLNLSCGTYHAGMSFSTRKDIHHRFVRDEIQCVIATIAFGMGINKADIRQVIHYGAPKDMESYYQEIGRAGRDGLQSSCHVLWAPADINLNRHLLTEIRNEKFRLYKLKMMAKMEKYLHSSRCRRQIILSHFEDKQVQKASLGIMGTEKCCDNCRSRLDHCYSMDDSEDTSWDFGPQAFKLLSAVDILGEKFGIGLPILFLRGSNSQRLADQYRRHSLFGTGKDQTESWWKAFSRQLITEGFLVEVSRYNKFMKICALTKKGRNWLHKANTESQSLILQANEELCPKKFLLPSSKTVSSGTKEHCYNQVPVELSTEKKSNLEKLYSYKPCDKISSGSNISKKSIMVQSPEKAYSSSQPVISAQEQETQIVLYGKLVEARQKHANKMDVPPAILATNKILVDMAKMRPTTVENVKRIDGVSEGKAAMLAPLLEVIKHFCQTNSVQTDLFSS
Assay type: biochemical
Method: DNA duplex was synthesized at BGI (Shenzhen, China) and was composed of strand 1 with the sequence 5′-[…]-3′ (SEQ ID NO.: 1) and strand 2 with the sequence 5′-[…]-3′ (SEQ ID NO.: 2). DNA strands were annealed by heating to 95 °C for 5 minutes followed by slow cooling to room temperature. […] DMSO (0.1 μl) was added to columns 12, rows A-H and column 24, rows I-P for the maximum signal control.
Where RLU=relative luminescence units, sample=signal in sample well, and MIN and MAX are the respective minimum and maximum signal controls. • Four-parameter IC50 fit equation:
Y=Bottom+(Top−Bottom)/(1+(IC50/X)^Hill Slope)
Where top and bottom are normally allowed to float but may be fixed at 100 or 0 respectively in a 3-parameter fit. Y is the % inhibition and X is the compound concentration.
Molecular Biology and virus production. […] The baculovirus from the expression plasmid WRN-BV08 was generated from transfection and amplification following the manufacturer's instructions.
Sf9 cells grown in SF900II media were infected with 1:200 WRN-BV08 P2 virus and incubated for protein expression for 72 h at 27 °C. The WRN protein was purified using the following protocol. The cell pellets were thawed and resuspended in buffer A (50 mM Tris, pH 7.5, 500 mM NaCl, 1 mM TCEP, 10% Glycerol) supplemented with 0.5% CHAPS, 1 mM [COMPOUND LEFT OUT], 1 μg/ml Leupeptin, 1 μg/ml Pepstatin, and the Pierce Universal Nuclease and cocktail tablet. Cleared lysates were loaded onto a Ni Sepharose™ excel column and washed with buffer A and bound protein was eluted with buffer A supplemented with 300 mM imidazole. The eluted protein was dialyzed against buffer A and digested by His-tagged TEV (1:5 ratio) overnight at 4 °C. […] Untagged WRN protein was eluted from the column with buffer A supplemented with 20 mM imidazole, dialyzed overnight into buffer B (50 mM Tris, pH 7.5, 1 mM TCEP, 10% Glycerol) supplemented with 150 mM NaCl and loaded onto a Heparin column. Proteins were eluted with a step gradient of buffer B supplemented with 150 mM, 200 mM, 300 mM and 500 mM NaCl.
`CCc1c(N2CCN(C(=O)c3ccnc(OC)c3O)CC2)c(=O)n2nc(-c3ccnc(OC)c3)nc2n1CC(=O)Nc1ccc(C(F)(F)F)cc1Cl` [Compound I-80, N-[2-chloro-4-(trifluoromethyl)phenyl]-2-{5-ethyl-6-[4-(3-hydroxy-2-methoxypyridine-4-carbonyl)piperazin-1-yl]-2-(2-methoxypyridin-4-yl)-7-oxo-4H,7H-[1,2,4]triazolo[1,5-a]pyrimidin-4-yl}acetamide] was tested, and the IC50 was 5 to 50 nM.
With `CCc1c(N2CCN(C(=O)c3ncnc(C)c3O)CC2)c(=O)n2nc(-c3cnc(OC)c(C)c3)nc2n1CC(=O)Nc1ccc(C(F)(F)F)cc1Cl` [Compound I-42, N-[2-chloro-4-(trifluoromethyl)phenyl]-2-{5-ethyl-6-[4-(5-hydroxy-6-methylpyrimidine-4-carbonyl)piperazin-1-yl]-2-(6-methoxy-5-methylpyridin-3-yl)-7-oxo-4H,7H-[1,2,4]triazolo[1,5-a]pyrimidin-4-yl}acetamide] the IC50 was 5 to 50 nM.
`CCc1c(N2CCN(C(=O)c3ncnc(C)c3O)CC2)c(=O)n2nc(-c3ccnc(OC)c3)nc2n1CC(=O)Nc1ccc(C(F)(F)F)cc1Cl` [Compound I-21, N-[2-chloro-4-(trifluoromethyl)phenyl]-2-{5-ethyl-6-[4-(5-hydroxy-6-methylpyrimidine-4-carbonyl)piperazin-1-yl]-2-(2-methoxypyridin-4-yl)-7-oxo-4H,7H-[1,2,4]triazolo[1,5-a]pyrimidin-4-yl}acetamide] gave an IC50 of 5 to 50 nM.
`CCc1c(N2CCN(C(=O)c3ccnn3C)CC2)c(=O)n2nc(-c3ccnc(OC)c3)nc2n1CC(=O)Nc1ccc(C(F)(F)F)cc1Cl` [Compound I-66, N-[2-chloro-4-(trifluoromethyl)phenyl]-2-[5-ethyl-2-(2-methoxypyridin-4-yl)-6-[4-(1-methyl-1H-pyrazole-5-carbonyl)piperazin-1-yl]-7-oxo-4H,7H-[1,2,4]triazolo[1,5-a]pyrimidin-4-yl]acetamide] was tested, and the IC50 was 5 to 50 nM.
`CCc1c(N2CCN(C(=O)c3cnc(C)cc3O)CC2)c(=O)n2nc(C3=CCOCC3)nc2n1CC(=O)Nc1ccc(C(F)(F)F)cc1Cl` [Compound I-2, N-[2-chloro-4-(trifluoromethyl)phenyl]-2-[2-(3,6-dihydro-2H-pyran-4-yl)-5-ethyl-6-[4-(4-hydroxy-6-methylpyridine-3-carbonyl)piperazin-1-yl]-7-oxo-4H,7H-[1,2,4]triazolo[1,5-a]pyrimidin-4-yl]acetamide] gave an IC50 of 5 to 50 nM.
`CCc1c(N2CCN(C(=O)c3coc(C)n3)CC2)c(=O)n2nc(-c3ccnc(OC)c3)nc2n1CC(=O)Nc1ccc(C(F)(F)F)cc1Cl` [Compound I-75, N-[2-chloro-4-(trifluoromethyl)phenyl]-2-[5-ethyl-2-(2-methoxypyridin-4-yl)-6-[4-(2-methyl-1,3-oxazole-4-carbonyl)piperazin-1-yl]-7-oxo-4H,7H-[1,2,4]triazolo[1,5-a]pyrimidin-4-yl]acetamide] showed an IC50 of 5 to 50 nM.
Compound `CCc1c(N2CCN(C(=O)c3ccnc(C)c3O)CC2)c(=O)n2nc(C3=CCOCC3)nc2n1CC(=O)Nc1ccc(C(F)(F)F)cc1Cl` [Compound I-5, N-[2-chloro-4-(trifluoromethyl)phenyl]-2-[2-(3,6-dihydro-2H-pyran-4-yl)-5-ethyl-6-[4-(3-hydroxy-2-methylpyridine-4-carbonyl)piperazin-1-yl]-7-oxo-4H,7H-[1,2,4]triazolo[1,5-a]pyrimidin-4-yl]acetamide] has an IC50 of 5 to 50 nM.
In the case of `CCc1c(N2CCN(C(=O)c3ncc4c(c3O)CCO4)CC2)c(=O)n2nc(-c3ccnc(OC)c3)nc2n1CC(=O)Nc1ccc(C(F)(F)F)cc1Cl` [Compound I-85, N-[2-chloro-4-(trifluoromethyl)phenyl]-2-[5-ethyl-6-(4-{4-hydroxy-2H,3H-furo[2,3-c]pyridine-5-carbonyl}piperazin-1-yl)-2-(2-methoxypyridin-4-yl)-7-oxo-4H,7H-[1,2,4]triazolo[1,5-a]pyrimidin-4-yl]acetamide], the IC50 is reported as under 5 nM.
`CCc1c(N2CCN(C(=O)C(C)(C)C#N)CC2)c(=O)n2nc(C3=CCOCC3)nc2n1CC(=O)Nc1ccc(C(F)(F)F)cc1Cl` [Compound I-31, N-[2-chloro-4-(trifluoromethyl)phenyl]-2-{6-[4-(2-cyano-2,2-dimethylacetyl)piperazin-1-yl]-2-(3,6-dihydro-2H-pyran-4-yl)-5-ethyl-7-oxo-4H,7H-[1,2,4]triazolo[1,5-a]pyrimidin-4-yl}acetamide] showed an IC50 of 50 to 100 nM.
`CCc1c(N2CCN(C(=O)c3cnnn3C)CC2)c(=O)n2nc(-c3ccnc(OC)c3)nc2n1CC(=O)Nc1ccc(C(F)(F)F)cc1Cl` [Compound I-63, N-[2-chloro-4-(trifluoromethyl)phenyl]-2-[5-ethyl-2-(2-methoxypyridin-4-yl)-6-[4-(1-methyl-1H-1,2,3-triazole-5-carbonyl)piperazin-1-yl]-7-oxo-4H,7H-[1,2,4]triazolo[1,5-a]pyrimidin-4-yl]acetamide] was tested, and the IC50 was 5 to 50 nM.
With `CCc1c(N2CCN(C(=O)c3cccc4cccnc34)CC2)c(=O)n2nc(C3=CCOCC3)nc2n1CC(=O)Nc1ccc(C(F)(F)F)cc1Cl` [Compound I-19, N-[2-chloro-4-(trifluoromethyl)phenyl]-2-[2-(3,6-dihydro-2H-pyran-4-yl)-5-ethyl-7-oxo-6-[4-(quinoline-8-carbonyl)piperazin-1-yl]-4H,7H-[1,2,4]triazolo[1,5-a]pyrimidin-4-yl]acetamide] the IC50 was 5 to 50 nM.
In the case of `CCc1c(N2CCN(C(=O)c3cnn(C)c3)CC2)c(=O)n2nc(-c3cc(OC)ncn3)nc2n1CC(=O)Nc1ccc(C(F)(F)F)cc1Cl` [Compound I-71, N-[2-chloro-4-(trifluoromethyl)phenyl]-2-[5-ethyl-2-(6-methoxypyrimidin-4-yl)-6-[4-(1-methyl-1H-pyrazole-4-carbonyl)piperazin-1-yl]-7-oxo-4H,7H-[1,2,4]triazolo[1,5-a]pyrimidin-4-yl]acetamide], the IC50 is reported as 5 to 50 nM.
With `CCc1c(N2CC3CN(C(=O)c4ncnc(C)c4O)CC3C2)c(=O)n2nc(C3=CCOCC3)nc2n1CC(=O)Nc1ccc(C(F)(F)F)cc1Cl` (stereo not drawn) [Compound I-8, N-[2-chloro-4-(trifluoromethyl)phenyl]-2-[2-(3,6-dihydro-2H-pyran-4-yl)-5-ethyl-6-[5-(5-hydroxy-6-methylpyrimidine-4-carbonyl)-octahydropyrrolo[3,4-c]pyrrol-2-yl]-7-oxo-4H,7H-[1,2,4]triazolo[1,5-a]pyrimidin-4-yl]acetamide] the IC50 was 5 to 50 nM.
Compound `CCc1c(N2CCN(C(=O)c3c(C)nn(C)c3C)CC2)c(=O)n2nc(-c3ccnc(OC)c3)nc2n1CC(=O)Nc1ccc(C(F)(F)F)cc1Cl` [Compound I-50, N-[2-chloro-4-(trifluoromethyl)phenyl]-2-[5-ethyl-2-(2-methoxypyridin-4-yl)-7-oxo-6-[4-(1,3,5-trimethyl-1H-pyrazole-4-carbonyl)piperazin-1-yl]-4H,7H-[1,2,4]triazolo[1,5-a]pyrimidin-4-yl]acetamide] has an IC50 of 5 to 50 nM.
`CCc1c(N2CCN(C(=O)c3cnn(C)c3)CC2)c(=O)n2nc(-c3cnc(OC)nc3)nc2n1CC(=O)Nc1ccc(C(F)(F)F)cc1Cl` [Compound I-51, N-[2-chloro-4-(trifluoromethyl)phenyl]-2-[5-ethyl-2-(2-methoxypyrimidin-5-yl)-6-[4-(1-methyl-1H-pyrazole-4-carbonyl)piperazin-1-yl]-7-oxo-4H,7H-[1,2,4]triazolo[1,5-a]pyrimidin-4-yl]acetamide] showed an IC50 of 5 to 50 nM.
